Measured values taken from article PMC5407577, “Functional and genetic evidence that nucleoside transport is highly conserved in Leishmania species: Implications for pyrimidine-based chemotherapy” (International Journal for Parasitology: Drugs and Drug …, 2017).

Experiments:
[1] = test system: L. mexicana promastigotes WT; test: Alamar blue drug sensitivity assay, L. mexicana WT; type: cell-based, Leishmania mexicana; settings: Leishmania mexicana, 72 h, WT promastigotes, 72 h + 48 h with dye; n ≥ 4; read-out: EC50
Method: (§1) Sensitivity assays of Leishmania strains to various drugs using the viability dye resazurin (Alamar Blue) (Sigma-Aldrich) were performed using a protocol adapted from [Räz et al. (1997)], as described ([Al-Salabi et al., 2003], [Gould et al., 2008]). Pentamidine and diminazene were used as non-nucleoside controls and were obtained from Sigma-Aldrich, as were many purines, pyrimidines, and analogs, with the exceptions of 2-thiouridine and 4-thiouridine (TriLink BioTechnologies, San Diego, CA); 5′-deoxyuridine, and 2′-3′-dideoxyuridine (Carbosynth, Compton, UK); 5-fluoro-2′-deoxyuridine (Fluka); and 2-thiouracil (ICN Biomedicals, Cambridge, UK). A preliminary promastigote culture was diluted to a density of 2 × 10^6 cells/ml, of which 100 μl was added to wells of 96-well plates pre-loaded with 100 μl of doubling dilutions of test compounds, resulting in a final density of 1 × 10^6 cells/ml; the dilutions were over 2 rows of the plate (23 concentrations), with the last well containing only medium and serving as the no-drug control. The plates were incubated at 25 °C for 72 h before adding the Alamar Blue dye (20 μl of 12.5 mg resazurin sodium salt (Sigma) in 100 ml phosphate buffered saline (PBS; pH 7.4)). Since Leishmania parasites metabolize the Alamar Blue dye slower than trypanosomes ([Gould et al., 2008]), the cells were incubated with the dye for a further period of 48 h before measuring the fluorescence, using a FLUOstar Optima fluorimeter (BMG Labtech) at wavelengths of 544 nm for excitation and 620 nm for emission. […] Each experiment was performed independently at least 4 times; statistical significance was determined using Student's unpaired t-test.

[2] = test system: Lmex5F2′dURes; test: microbe, parasite or virus in culture; type: cell-based, Leishmania mexicana
Method: as §1

[3] = test system: Lmex5FURes; test: microbe, parasite or virus in culture; type: cell-based, Leishmania mexicana
Method: as §1

[4] = test system: Lmaj5FURes; test: microbe, parasite or virus in culture; type: cell-based, Leishmania major
Method: as §1

[5] = test system: Lmaj5F2′dURes; test: microbe, parasite or virus in culture; type: cell-based, Leishmania major
Method: as §1

[6] = test system: L. major promastigotes; test: metabolomic analysis of treated L. major promastigotes; type: cell-based, Leishmania major; settings: 100 μM, 8 h
Method: (§2) Metabolomics analysis of the Leishmania promastigotes was undertaken in triplicate, exactly as described ([Ali et al., 2013a]). Briefly, cells were grown to log phase stage, resuspended at 2 × 10^6 cells/ml in 50 ml HOMEM/FBS and incubated 8 h with 100 μM of test compound (standard conditions) before transfer to a 50-ml centrifuge tube for instantaneous cooling (dry ice/ethanol bath, 4 °C) and centrifugation (2500 rpm, 10 min, 4 °C). The pellet was lysed with 200 μl of chloroform/methanol/water (1:3:1 v/v/v) containing mass spectrometry standards, and vigorous mixing (1 h, 4 °C); cell debris was removed by centrifugation and the metabolite extracts were stored in HPLC vials at −80 °C. Control samples were prepared in parallel and included untreated cells, unused growth medium, test compound solution and extraction solvent blanks. The analysis used a hydrophilic interaction liquid chromatography (HILIC-LC) fitted with a zwitterionic ZIC-pHILIC column (Merck Sequant), coupled to high resolution mass spectrometry (MS) using a Thermo Q-Exactive, and metabolomic data outputs were analyzed using the IDEOM application (http://mzmatch.sourceforge.net/ideom.php) with default parameters ([Creek et al., 2012]) exactly as described ([Ali et al., 2013a]). The lower limit of detection was set to 500 intensity units for all reported metabolites, in order to prevent spurious identification of low level signals.
(§3) The mechanism of action of the fluorinated pyrimidines was investigated using a metabolomics approach, where promastigotes of L. mexicana and L. major were incubated for 8 h with 100 μM of either 5-FU, 5F-2′dUrd or 5F-Urd prior to metabolite extraction and mass spectrometric analysis as described ([Ali et al., 2013a], [Alkhaldi et al., 2015]). These conditions were chosen to allow for significant metabolite accumulation while not affecting cell viability or growth rate, which could broadly affect metabolite levels.

[7] = test system: L. major promastigotes WT; test: Alamar blue drug sensitivity assay, L. major WT; type: cell-based, Leishmania major; settings: Leishmania major, 72 h, WT promastigotes, 72 h + 48 h with dye; n ≥ 4; read-out: EC50
Method: as §1

[8] = test system: L. mexicana promastigotes; test: metabolomic analysis of treated L. mexicana promastigotes; type: cell-based, Leishmania mexicana; settings: 100 μM, 8 h
Method: as §2, §3

[9] = target: LmexNT1; type: cell-based, Leishmania mexicana; settings: inhibition of 0.25 μM [3H]-uridine uptake in the presence of 1 mM uracil
Method: (§4) Using the standard uptake technique as described for T. brucei and Leishmania species ([Wallace et al., 2002], [Al-Salabi and De Koning, 2005], [Gudin et al., 2006]), the dose- or time-dependent uptake of radiolabeled permeants was investigated.
(§5) Briefly, cells in the mid-to-late logarithmic stage of growth were harvested by centrifugation for 10 min at 1500×g. The cells were washed twice with transport assay buffer (AB: 33 mM HEPES, 98 mM NaCl, 4.6 mM KCl, 0.55 mM CaCl2, 0.07 mM MgSO4, 5.8 mM NaH2PO4, 0.3 mM MgCl2, 23 mM NaHCO3, 14 mM glucose, pH 7.3), resuspended at a density of 10^8 cells ml^−1 in AB, and left for 20–30 min at room temperature to recover from centrifugation stress. One hundred microliters of cell suspension was incubated at ambient temperature for a predetermined time with 100 μl radiolabeled test compound, in the presence or absence of unlabeled substrate or other competitive inhibitors. The incubation was terminated by the addition of ice-cold stop solution (AB containing saturating levels, usually 10 mM, of unlabeled permeant) and centrifugation through oil for 1 min at 13,000 × g. […] Radioactivity was determined by liquid scintillation counting in a Beckman LS6000 TA scintillation counter. Saturation data, inhibition data, and time courses were plotted to equations for linear or non-linear regression (hyperbolic or sigmoid curves), as appropriate. All experiments were performed in triplicate and on at least three independent occasions.

[10] = test system: Lmex5FURes; type: cell-based, Leishmania mexicana; settings: 0.5 μM radiolabel
Method: as §4, §5

[11] = target: LmexUU1; type: cell-based, Leishmania mexicana; settings: inhibition of [3H]-uracil uptake, 4 min
Method: as §4, §5

[12] = n = 3, SEM, untreated: not detected (<500)

In the case of `O=c1[nH]cc(F)c(=O)[nH]1` [5-FU, 5-Fluorouracil], the EC50 [1] is reported as 9.3 ± 0.6 µM, the EC50 ([2]; Leishmania mexicana) is reported as 1770 ± 301 µM and the “RF (Resistance Factor = IC50 (resistant clone)/IC50 (WT))” value (“RF” for short) ([2]; Lmex5F2′dURes vs L. mexicana WT) is reported as 190. The EC50 ([3]; Leishmania mexicana) was 1370 ± 123 µM, the “RF” value ([3]; Lmex5FURes vs L. mexicana WT) was 147 and the EC50 ([4]; Leishmania major) was 150 ± 5 µM. The “RF” value ([4]; Lmaj5FURes vs L. major WT) was 17, the EC50 ([5]; Leishmania major) was 12 ± 1 µM and the “RF” value ([5]; Lmaj5F2′dURes vs L. major WT) was 1.3. For the same compound, the dCMP peak intensity [6, 12] was 5130 arbitrary units, the dUrd peak intensity ([6]; untreated: 712 ± 105) was 5177 ± 1445 arbitrary units and the dCTP peak intensity ([6]; untreated: 995 ± 109) was 4541 ± 565 arbitrary units. For the same compound, the dAdo peak intensity ([6]; untreated: 2992 ± 173) was 6996 ± 2423 arbitrary units, the dAMP peak intensity ([6]; untreated: 6192 ± 910) was 19379 ± 3774 arbitrary units and the dADP peak intensity ([6]; untreated: not detected) was “not detected”. It also gave a dCDP peak intensity ([6]; untreated: not detected) of 6197 ± 1588 arbitrary units, an EC50 [7] of 8.5 ± 0.6 µM and a dCMP peak intensity [8, 12] of 5636 ± 3288 arbitrary units. For the same compound, the dUrd peak intensity ([8]; untreated: 304 ± 155) was 4166 ± 1560 arbitrary units, the dADP peak intensity ([8]; untreated: 1458) was 8948 ± 461^∗∗ arbitrary units and the dAdo peak intensity ([8]; untreated: 2585 ± 811) was 6476 ± 2403 arbitrary units. The dAMP peak intensity ([8]; untreated: 10660 ± 2897) was 20366 ± 5358 arbitrary units, the dCDP peak intensity ([8]; untreated: not detected) was 4803 ± 433^∗∗ arbitrary units and the dCTP peak intensity ([8]; untreated: not detected) was 2913 ± 1346 arbitrary units. For the same compound, the Ki [9] was over 5000 µM, the “uptake of radiolabel, lower than in WT control cells” value [10] was 94.5% and the Ki [11] was 56.3 ± 6.4 µM.
